According to US20120009320A1, “COMPOSITIONS COMPRISING MONATIN AND CALCIUM” (priority 2009, published 2012):
Marks after values point to notes of the source that are not given here. Peptide text beside a SMILES is read from it.

Legend:
panelists = experiment: Sweetness matching of monatin/salt combinations in water pH 7 and citric/citrate buffer pH 3, Examples 3-5; format: in vivo, human
Procedure: Test and reference solutions were prepared in the same medium. The SEVs of monatin/salt combinations at the appropriate concentrations were measured and compared to the SEV of monatin measured in the absence of any salts. […] Monatin-containing test samples and sucrose references were prepared in the same medium. Based on the previous observations that the sweetness of monatin relative to sucrose is sweeter at acidic pH, this study was carried out under two pH conditions; specifically, in water at pH 7-7.5 and in a citric/citrate buffer at pH 3.0. 2R,4R-Monatin mono potassium salt was used as an illustrative form of monatin for the experiments below. All monatin solutions were prepared ‘as is’, i.e., a 40 ppm monatin solution is 40 ppm of monatin mono potassium salt. A sweetness matching procedure was adopted. […] Each test sample was either monatin control or monatin plus designated salt at the stated concentration. Panelists were instructed to taste the test sample and then to identify the reference sample that matched the perceived sweetness of the test sample. If the sweetness of the test sample was judged to fall between that of two references, panelists were instructed to estimate sweetness to one decimal point. Panelists evaluated each sample in duplicate. Results for each test sample were averaged. […] The five samples were tested at pH 7 (water medium) and at pH 3 (citric/citrate buffer). […] The weight percent of calcium in the salt is different for each of the calcium salts. As such, the weight percent of the calcium salt in each sample is calculated in order to determine how much salt is needed to deliver 1200 ppm of calcium cations. […] The weight percent of the other calcium salts is similarly calculated based on the molar weight percent of calcium in the calcium salt. […] The samples were created at pH 3 and pH 7. The impact of other metal ions, specifically potassium and magnesium, (i.e. […] These ions were tested in the form and concentrations found in cow's milk.

[1] = Sweetness of monatin stereoisomers relative to sucrose by weight (from SEV); format: in vivo; conditions: general statement of the description
Procedure: As used herein, “sucrose equivalency value”, or SEV, is a measure of sweetness. The SEV is the concentration (% w/v) of a sucrose solution that gives a degree of sweetness that is perceived to be the same degree of sweetness as that of a test sample. For purposes of this disclosure, the SEV of an aqueous or dairy solution containing monatin is determined through comparison of the monatin-containing solution to a series of sucrose containing solutions prepared in the same medium (see Example 1).
Monatin-containing compositions are described herein as being “X” times as sweet as sucrose. The various stereoisomers of monatin are also described as being “X” times sweeter than sucrose. These values are determined from the SEV of the compositions.

[2] = Schiffman, Physiology & Behavior 68 (2000); cited from earlier work
[3] = 200 ppm calcium (from calcium chloride), 40 ppm monatin, pH 3.0
[4] = 200 ppm calcium (from calcium chloride), 40 ppm monatin, pH 7.0
[5] = 400 ppm calcium (from calcium chloride), 40 ppm monatin, pH 3.0
[6] = 400 ppm calcium (from calcium chloride), 40 ppm monatin, pH 7.0
[7] = 800 ppm calcium (from calcium chloride), 40 ppm monatin, pH 3.0
[8] = 800 ppm calcium (from calcium chloride), 40 ppm monatin, pH 7.0
[9] = 1200 ppm calcium (from calcium chloride), 40 ppm monatin, pH 3.0
[10] = 1200 ppm calcium (from calcium chloride), 40 ppm monatin, pH 7.0
[11] = calcium salt at 1200 ppm Ca2+ with 40 ppm monatin vs monatin only, pH 3.0
[12] = calcium salt at 1200 ppm Ca2+ with 40 ppm monatin vs monatin only, pH 7.0
[13] = calcium salt at 1200 ppm Ca2+ with 40 ppm monatin, pH 3.0
[14] = calcium salt at 1200 ppm Ca2+ with 40 ppm monatin, pH 7.0
[15] = salt (1450 ppm K+ or 170 ppm Mg2+) with 40 ppm monatin vs monatin only, pH 3.0
[16] = salt (1450 ppm K+ or 170 ppm Mg2+) with 40 ppm monatin, pH 3.0, KCl solutions very salty, estimates difficult
[17] = salt (1450 ppm K+ or 170 ppm Mg++) with 40 ppm monatin vs monatin only, pH 7.0
[18] = salt (1450 ppm K+ or 170 ppm Mg++) with 40 ppm monatin, pH 7.0, KCl solutions very salty, estimates difficult

In the case of `[Ca+2].[Cl-].[Cl-]` [Calcium chloride], the “Sucrose Equivalency Value” (panelists; [3]) is reported as 9.5%, the “Sweetness Enhancement” value (panelists; [3]) is reported as 10% and the “Sucrose Equivalency Value” (panelists; [4]) is reported as 10.0%. The “Sweetness Enhancement” value (panelists; [4]) was 19%, the “Sucrose Equivalency Value” (panelists; [5]) was 10.0% and the “Sweetness Enhancement” value (panelists; [5]) was 16%. The “Sucrose Equivalency Value” (panelists; [6]) was 10.2%, the “Sweetness Enhancement” value (panelists; [6]) was 21% and the “Sucrose Equivalency Value” (panelists; [7]) was 10.2%. For the same compound, the “Sweetness Enhancement” value (panelists; [7]) was 19%, the “Sucrose Equivalency Value” (panelists; [8]) was 10.2% and the “Sweetness Enhancement” value (panelists; [8]) was 21%. The “Sucrose Equivalency Value” (panelists; [9]) was 10.3%, the “Sweetness Enhancement” value (panelists; [9]) was 20% and the “Sucrose Equivalency Value” (panelists; [10]) was 10.1%. For the same compound, the “Sweetness Enhancement” value (panelists; [10]) was 20%, the “Sweetness Enhancement” value (panelists; 1600 ppm calcium (from calcium chloride), 40 ppm monatin, pH 3.0) was 19% and the “Sucrose Equivalency Value” (panelists; 1600 ppm calcium (from calcium chloride), 40 ppm monatin, pH 3.0, solutions very salty, SEV estimate very difficult) was 10.2** %. For the same compound, the “Sweetness Enhancement” value (panelists; 1600 ppm calcium (from calcium chloride), 40 ppm monatin, pH 7.0) was 21%, the “Sucrose Equivalency Value” (panelists; 1600 ppm calcium (from calcium chloride), 40 ppm monatin, pH 7.0, solutions very salty, SEV estimate very difficult) was 10.2** % and the “Sweetness Enhancement” value (panelists; [11]) was 20%. The “Sweetness Enhancement” value (panelists; [12]) was 20%, the “Sucrose Equivalency Value” (panelists; [13]) was 10.3% and the “Sucrose Equivalency Value” (panelists; [14]) was 10.1%.

For `CC(O)C(=O)[O-].CC(O)C(=O)[O-].[Ca+2]` (stereo not drawn) [Calcium lactate], the “Sweetness Enhancement” value (panelists; [11]) was 10%, the “Sweetness Enhancement” value (panelists; [12]) was 13% and the “Sucrose Equivalency Value” (panelists; [13]) was 9.5%. The “Sucrose Equivalency Value” (panelists; [14]) was 9.5%.

For `[Cl-].[K+]` [Potassium chloride], the “Sweetness Enhancement” value (panelists; [15]) was 7%, the “Sucrose Equivalency Value” (panelists; [16]) was 9.2% and the “Sweetness Enhancement” value (panelists; [17]) was 4%. For the same compound, the “Sucrose Equivalency Value” (panelists; [18]) was 8.7%.

With `NC(CC(O)(Cc1c[nH]c2ccccc12)C(=O)O)C(=O)O` (stereo not drawn) [S,S stereoisomer of monatin, 4-amino-2-hydroxy-2-(1H-indol-3-ylmethyl)-pentanedioic acid] the “times sweeter than sucrose by weight” value [1] was 50-200 times.

For `COC(=O)[C@H](Cc1ccccc1)NC(=O)[C@@H](N)CC(=O)O` [aspartame] (HELM PEPTIDE1{D.F.[CO[*:1]]}$$$$V2.0), the “effect of the addition of calcium ions on the sweetness intensity of the sweetener” value [2] is listed as “did not have an effect”.

In the case of `OC[C@H]1O[C@@](CO)(O[C@H]2O[C@H](CO)[C@@H](O)[C@H](O)[C@H]2O)[C@@H](O)[C@@H]1O` [sucrose], the “effect of the addition of calcium ions on the sweetness intensity of the sweetener” value [2] is listed as “did not have an effect”.

For Calcium gluconate, the “Sweetness Enhancement” value (panelists; [11]) was 7%, the “Sweetness Enhancement” value (panelists; [12]) was 13% and the “Sucrose Equivalency Value” (panelists; [13]) was 9.2%. The “Sucrose Equivalency Value” (panelists; [14]) was 9.5%.

With Magnesium gluconate the “Sweetness Enhancement” value (panelists; [15]) was 6%, the “Sucrose Equivalency Value” (panelists; [16]) was 9.1% and the “Sweetness Enhancement” value (panelists; [17]) was 9%. The “Sucrose Equivalency Value” (panelists; [18]) was 9.2%.

With calcium the “Sweetness Enhancement” value (panelists; [3]) was 10% and the “Sweetness Enhancement” value (panelists; [4]) was 19%.
